# In ChEMBL document CHEMBL5126506, “Coumarin-benzimidazole hybrids: A review of developments in medicinal chemistry” (Eur J Med Chem, 2022):
# Legend:
# Metaphire sieboldi = test: Anthelmintic activity against Metaphire sieboldi assessed as mean paralysing time up to 0.5% w/v; type: functional
# [1] = target: Serum paraoxonase/arylesterase 1 (Homo sapiens, UniProt P27169); test: Inhibition of human PON1 using paraoxon as a substrate by regression analysis
# Staphylococcus aureus [2] = test: Antibacterial activity against Staphylococcus aureus ATCC 6538 assessed as zone of inhibition at 500 ug per disk measured after 24 hrs by NCCLS based disk diffusion method; type: functional; settings: read-out: DIZ
# Escherichia coli [3] = test: Antibacterial activity against Escherichia coli assessed as zone of inhibition at 25 ug/ml; type: functional; settings: read-out: DIZ
# [4] = Antibacterial activity against Xanthomonas citri assessed as zone of inhibition at 25 ug/ml; type: functional; settings: read-out: DIZ
# Mus musculus = test: Antiinflammatory activity in carrageenan induced mouse paw oedema model assessed as inhibition of paw oedema at 100 mg/kg, po pretreated with compound for 30 mins followed by carrageenan injection measured after 5 hrs relative to control; type: functional; parameters: scale not given: the % may be the effect or the level left; settings: time 5.5 hrs
# Pseudomonas aeruginosa [5] = test: Antibacterial activity against Pseudomonas aeruginosa assessed as cell growth inhibition measured after 24 hrs by serial broth-dilution method; type: functional
# [6] = Antioxidant activity assessed as DPPH radical scavenging activity incubated for 10 mins in dark condition by spectrophotometer method; type: functional
# Aspergillus flavus [7] = test: […] activity against Aspergillus flavus assessed as cell growth inhibition measured after 24 hrs by serial broth-dilution method; type: functional
# Aspergillus flavus [8] = test: […] activity against Aspergillus flavus assessed as zone of inhibition measured after 24 hrs by agar well diffusion method; type: functional
# Bacillus subtilis [9] = test: Antibacterial activity against Bacillus subtilis assessed as zone of inhibition measured after 24 hrs by agar well diffusion method; type: functional
# Escherichia coli [10] = test: Antibacterial activity against Escherichia coli assessed as zone of inhibition measured after 24 hrs by agar well diffusion method; type: functional
# [11] = Antioxidant activity assessed as DPPH radical scavenging activity preincubated for 24 hrs followed by dark incubation 30 mins by UV-visible spectrophotometer method; type: functional
# Bacillus subtilis [12] = test: Antibacterial activity against Bacillus subtilis MTCC 1789 measured after 16 hrs by CLSI based microtitre broth dilution method; type: functional
# Staphylococcus aureus [13] = test: Antibacterial activity against Staphylococcus aureus ATCC 6538P measured after 16 hrs by CLSI based microtitre broth dilution method; type: functional
# Pseudomonas aeruginosa [14] = test: Antibacterial activity against Pseudomonas aeruginosa ATCC 25668 measured after 16 hrs by CLSI based microtitre broth dilution method; type: functional
# Escherichia coli [15] = test: Antibacterial activity against Escherichia coli MTCC 739 measured after 16 hrs by CLSI based microtitre broth dilution method; type: functional
# Serum paraoxonase/arylesterase 1, sequence (P27169 whole entry, the tested form may be a part): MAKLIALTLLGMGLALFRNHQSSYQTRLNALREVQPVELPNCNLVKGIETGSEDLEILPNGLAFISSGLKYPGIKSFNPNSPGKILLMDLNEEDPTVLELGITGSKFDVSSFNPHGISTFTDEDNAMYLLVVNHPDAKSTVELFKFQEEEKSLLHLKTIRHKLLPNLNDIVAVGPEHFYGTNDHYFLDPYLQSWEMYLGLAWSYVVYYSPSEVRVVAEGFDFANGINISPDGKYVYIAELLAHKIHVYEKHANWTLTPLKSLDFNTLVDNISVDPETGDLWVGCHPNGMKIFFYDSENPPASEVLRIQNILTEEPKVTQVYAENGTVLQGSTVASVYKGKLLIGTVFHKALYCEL
smiles,measurement,setting,value
O=C(Cc1cc(=O)oc2ccccc12)Nc1nc2ccccc2[nH]1,Time,Metaphire sieboldi,14 min
Cc1c(C)c(C)c(Cn2c[n+](Cc3cc(=O)oc4cc(O)ccc34)c3ccccc32)c(C)c1C,IC50,[1],7.84 µM
O=c1oc2ccccc2c(Nc2nc3ccccc3[nH]2)c1[N+](=O)[O-],zone of inhibition at 500 µg/disc,Staphylococcus aureus [2],23 mm
CCOC(=O)c1sc(Sc2cc3ccccc3oc2=O)c(-c2nc3ccccc3[nH]2)c1N,zone of inhibition at 25 µg/mL,Escherichia coli [3],19 mm
same,zone of inhibition at 25 µg/mL,[4],14 mm
COc1ccc(N2CC(c3cc(=O)oc4cc(C)ccc34)c3nc4ccccc4n3C2)cc1 (configuration not stated),Activity,Mus musculus,52.61%
O=C(CC(Sc1nc2ccccc2[nH]1)c1ccccc1)c1cc2ccccc2oc1=O (configuration not stated),MIC,Pseudomonas aeruginosa [5],2200 µg/mL
same,IC50,[6],35000 µg/mL
O=c1oc2ccccc2c(O)c1C(Sc1nc2ccccc2[nH]1)c1ccc(O)cc1 (configuration not stated),MIC,Aspergillus flavus [7],200 µg/mL
same,diameter of the inhibition zone (DIZ),Aspergillus flavus [8],18 mm
same,diameter of the inhibition zone (DIZ),Bacillus subtilis [9],19 mm
same,diameter of the inhibition zone (DIZ),Escherichia coli [10],17 mm
same,IC50,[11],9.82 µg/mL
O=c1oc2ccccc2cc1/C(Cn1cnc2ccccc21)=N\OCc1ccc(Cl)cc1,MIC,Bacillus subtilis [12],0.95 µg/mL
same,MIC,Staphylococcus aureus [13],1.56 µg/mL
same,MIC,Pseudomonas aeruginosa [14],3.12 µg/mL
same,MIC,Escherichia coli [15],3.12 µg/mL
